In patent US9476099B2 (TRUSTEES OF DARTMOUTH COLLEGE, priority 2012, dated 2016):

System: gene promoters in NT2/D1-R1 control and DNMT3B knockdown cells
Assay: Genome-wide promoter methylation analysis, HumanMethylation27 BeadChip (Table 15)
Assay type: cell-based, human
Conditions: sh-ctrl + 5aza; NT2/D1-R1 control cells
Protocol: DNA methylation analysis was performed in samples in triplicate using the […] […] assay with the HumanMethylation27 BeadChip ([…]) and the BeadChip was scanned on the BeadArray Reader ([…]), according to the manufacturer's instructions. Raw data was normalized and analyzed with Genome Studio software ([…]). The HumanMethylation27 BeadChip assays 27,578 CpGs covering more than 14,000 genes, mostly from promoter regions. […] Hierarchical clustering was performed as stated above. HumanMethylation27 BeadChip data and gene expression microarray data were submitted to NCBI GEO.

Q: Which “Mean promoter methylation, GALR1 cg04534765” value does the source give for Nc1ncn([C@H]2C[C@H](O)[C@@H](CO)O2)c(=O)n1 [5aza] here?
A: 0.440

Q: What about the “Mean promoter methylation, GCN5L2 cg08434547” value of the same compound?
A: 0.555

Q: What about the “Mean promoter methylation, GNAS cg00943909” value of the same compound?
A: 0.621

Q: What about the “Mean promoter methylation, HBQ1 cg07703401” value of the same compound?
A: 0.587

Q: What about the “Mean promoter methylation, HCN1 cg11285003” value of the same compound?
A: 0.369

Q: And the “Mean promoter methylation, HES6 cg24127874” value?
A: 0.763

Q: And the “Mean promoter methylation, HEYL cg25462291” value?
A: 0.576

Q: What about the “Mean promoter methylation, HRH3 cg08186362” value of the same compound?
A: 0.666

Q: What about the “Mean promoter methylation, ICAM1 cg22874046” value of the same compound?
A: 0.349

Q: What about the “Mean promoter methylation, ID2 cg23525180” value of the same compound?
A: 0.576

Q: And the “Mean promoter methylation, IGFBP3 cg04796162” value?
A: 0.501

Q: What about the “Mean promoter methylation, KATNB1 cg15153383” value of the same compound?
A: 0.474

Q: What about the “Mean promoter methylation, KCNAB1 cg23873703” value of the same compound?
A: 0.548

Q: And the “Mean promoter methylation, KCNC2 cg18573383” value?
A: 0.277

Q: What about the “Mean promoter methylation, KIAA1822 cg02867079” value of the same compound?
A: 0.842

Q: And the “Mean promoter methylation, KIAA1840 cg06121469” value?
A: 0.365

Q: What about the “Mean promoter methylation, KRTCAP2 cg11278262” value of the same compound?
A: 0.432

Q: And the “Mean promoter methylation, LGALS1 cg00292662” value?
A: 0.493

Q: What about the “Mean promoter methylation, LGR6 cg23578193” value of the same compound?
A: 0.423

Q: What about the “Mean promoter methylation, LOX cg06508445” value of the same compound?
A: 0.190

Q: And the “Mean promoter methylation, MAP6D1 cg03705396” value?
A: 0.522

Q: And the “Mean promoter methylation, MGC9850 cg21097640” value?
A: 0.292

Q: What about the “Mean promoter methylation, MRPL38 cg11653266” value of the same compound?
A: 0.224

Q: And the “Mean promoter methylation, MT cg14078309” value?
A: 0.213

Q: What about the “Mean promoter methylation, MYOD1 cg18555440” value of the same compound?
A: 0.561

Q: And the “Mean promoter methylation, OGG1 cg25415932” value?
A: 0.526

Q: What about the “Mean promoter methylation, OR10J1 cg25076881” value of the same compound?
A: 0.576

Q: And the “Mean promoter methylation, OSTbeta cg16029760” value?
A: 0.344

Q: And the “Mean promoter methylation, PABPC4 cg12585282” value?
A: 0.296

Q: What about the “Mean promoter methylation, PDE8B cg18089852” value of the same compound?
A: 0.203

Q: And the “Mean promoter methylation, PHLDA2 cg01263716” value?
A: 0.504

Q: What about the “Mean promoter methylation, PHLDA2 cg04720330” value of the same compound?
A: 0.379

Q: And the “Mean promoter methylation, PIB5PA cg18053607” value?
A: 0.403

Q: What about the “Mean promoter methylation, PLOD1 cg23286660” value of the same compound?
A: 0.468

Q: And the “Mean promoter methylation, PPCDC cg11632617” value?
A: 0.523

Q: And the “Mean promoter methylation, PRDM12 cg09191327” value?
A: 0.457

Q: What about the “Mean promoter methylation, PRMT8 cg23739862” value of the same compound?
A: 0.125

Q: What about the “Mean promoter methylation, PTPRO cg19402885” value of the same compound?
A: 0.671

Q: And the “Mean promoter methylation, PTPRO cg27196745” value?
A: 0.570

Q: What about the “Mean promoter methylation, R3HDML cg17692403” value of the same compound?
A: 0.529

Q: And the “Mean promoter methylation, RAB37 cg12448933” value?
A: 0.483

Q: What about the “Mean promoter methylation, RASA4 cg05749161” value of the same compound?
A: 0.157

Q: What about the “Mean promoter methylation, RASL11A cg06611744” value of the same compound?
A: 0.348

Q: What about the “Mean promoter methylation, SCAMP3 cg01745448” value of the same compound?
A: 0.308

Q: What about the “Mean promoter methylation, SCARA5 cg10171125” value of the same compound?
A: 0.408

Q: What about the “Mean promoter methylation, SEC14L2 cg14452140” value of the same compound?
A: 0.705

Q: And the “Mean promoter methylation, SH3BGRL3 cg03100146” value?
A: 0.661

Q: And the “Mean promoter methylation, SHH cg00577464” value?
A: 0.433

Q: And the “Mean promoter methylation, SLC6A5 cg20632573” value?
A: 0.291

Q: What about the “Mean promoter methylation, SLC25A22 cg02973416” value of the same compound?
A: 0.702

Q: What about the “Mean promoter methylation, SLC35C2 cg02413850” value of the same compound?
A: 0.254

Q: And the “Mean promoter methylation, SLIT1 cg07143898” value?
A: 0.325

Q: And the “Mean promoter methylation, SORCS3 cg16787600” value?
A: 0.786

Q: And the “Mean promoter methylation, SOX15 cg01029592” value?
A: 0.276

Q: And the “Mean promoter methylation, SOX15 cg13098960” value?
A: 0.472

Q: What about the “Mean promoter methylation, SOX17 cg02919422” value of the same compound?
A: 0.617

Q: And the “Mean promoter methylation, STXBP3 cg11666924” value?
A: 0.260

Q: What about the “Mean promoter methylation, SUSD2 cg23349242” value of the same compound?
A: 0.631

Q: And the “Mean promoter methylation, TBXA2R cg09998229” value?
A: 0.659

Q: And the “Mean promoter methylation, THAP3 cg11688219” value?
A: 0.581

Q: What about the “Mean promoter methylation, TMEM25 cg20001829” value of the same compound?
A: 0.424

Q: And the “Mean promoter methylation, TMEM106C cg25884854” value?
A: 0.482

Q: What about the “Mean promoter methylation, TRAPPC1 cg01667702” value of the same compound?
A: 0.471

Q: And the “Mean promoter methylation, UBA52 cg24356797” value?
A: 0.192

Q: And the “Mean promoter methylation, UNQ2446 cg10574499” value?
A: 0.619

Q: What about the “Mean promoter methylation, VPREB1 cg18441959” value of the same compound?
A: 0.524

Q: And the “Mean promoter methylation, ZGPAT cg04078896” value?
A: 0.308

Q: And the “Mean promoter methylation, ZGPAT cg18611245” value?
A: 0.736

Q: And the “Mean promoter methylation, ZNF585B cg03751813” value?
A: 0.392

Q: What about the “Mean promoter methylation, ZNF702 cg07559730” value of the same compound?
A: 0.457
